# Earlier results as cited in US20240292871A1, “A SWEETENER OR SWEETNESS ENHANCER COMPOSITION” (ANALYTICON DISCOVERY GMBH, priority 2020, published 2024).
# Details: 5% sucrose in water
smiles,measurement,value
COc1ccc([C@@H]2CC(=O)c3c(O)cc(O)cc3O2)cc1O [hesperetin],enhances the sweetness of sucrose,41%
